What was measured:
[1] = test system: methanogenesis in rumen liquor; assay: In vitro test for methane production (modified Hohenheim Forage value Test); settings: 8 h, 39° C., average of two experiments, vs control
Description: A modified version of the “Hohenheim Forage value Test (HFT)” was used for testing the effect of specific compounds on the rumen functions mimicked by this in-vitro system.
Feed is given into a syringe with a composition of rumen liquor and an appropriate mixture of buffers. The solution is incubated at 39° C. After 8 hours the quantity (and composition) of methane produced is measured and put into a formula for conversion.
• 6.2 g potassium dihydrogen phosphate (KH2PO4) • 0.6 g magnesium sulfate heptahydrate (MgSO4*7H2O) • 9 ml concentrated phosphoric acid (1 mol/l) • dissolved in distilled water to 1 l (pH about 1.6) Buffer Solution: • 35.0 g sodium hydrogen carbonate (NaHCO3) • 4.0 g ammonium hydrogen carbonate ((NH4)HCO3) • dissolved in distilled water to 1 l Trace Element Solution: • 13.2 g calcium chloride dihydrate (CaCl2*2H2O) • 10.0 g manganese(II) chloride tetrahydrate (MnCl2*4H2O) • 1.0 g cobalt(II) chloride hexahydrate (CoCl2*6H2O) • 8.0 g iron(III) chloride (FeCl3*6H2O) • dissolved in distilled water to 100 ml Sodium Salt Solution: • 100 mg sodium salt • dissolved in distilled water to 100 ml Reduction Solution: • first 3 ml sodium hydroxide (c=1 mol/l), then 427.5 mg sodium sulfide hydrate (Na2S*H2O) are added to 71.25 ml H2O • solution must be prepared shortly before it is added to the medium solution Procedure: Sample Weighing: • The feed stuff is sieved to 1 mm—usually TMR (44% concentrate, 6% hay, 37% maize silage and 13% grass silage)—and weighed exactly into 64 syringes. 4 of these syringes are the substrate controls, which display the gas production without the effect of the tested compounds. 4 other syringes are positive control, in which bromoethane sulfonate has been added to 0.1 mM. When needed, 4 syringes contain a carrier control (if the test compounds need a carrier). The remaining syringes contain the test substances, by groups of 4 syringes. Preparation of the Medium Solution:
The components are mixed in a Woulff bottle in following order: • 711 ml water • 0.18 ml trace element solution • 355.5 ml buffer solution • 355.5 ml mass element solution • The completed solution is warmed up to 39° C. followed by the addition of 1.83 ml sodium salt solution and the addition of reduction solution at 36° C. The rumen liquor is added, when the indicator turns colourless. Extraction of the Rumen Liquor: • 750 ml of rumen liquor are added to approximately 1,400 ml of medium solution under continued agitation and CO2-gassing. Filling the Syringes, Incubation and Determining Gas Volumes and VFA Values: • The diluted rumen fluid (24 ml) is added to the glass syringe. The syringes are then incubated for 8 hours at 39° C. under gentle agitation. After 8 hours, the volume of gas produced is measured, and the percentage of methane in the gas phase is determined by gas chromatography. Results
The food fermented was artificial TMR (44% concentrate, 6% hay, 37% maize silage and 13% grass silage). The compounds produced as described in examples 3 to 20 were added to the fermentation syringes to a concentration of 2 to 0.01% of dry matter (DM).

[2] = Stability of the isolated compound (1H NMR); assay type: physicochemical; settings: for degradation on storage: after 1 week at room temperature, repurified compound; for degradation on drying (1H NMR): dried at 60° C. under reduced pressure for 18 hours
Description: The final compound was dried at 60° C. under reduced pressure for 18 hours. […] The degraded compound was adsorbed on silica gel and purified by flash chromatography [Biotage®, dichloromethane/methanol 100/0→98/2 (15CV), 98/2 (4CV)] affording compound 3 as a light yellow liquid (0.59 g, yield=33%).
The final compound was dried at 60° C. under reduced pressure for 18 hours. […] The degraded compound was adsorbed on silica gel and purified by flash chromatography [Biotage®, dichloromethane/methanol 100/0→98/2 (12CV), 98/2 (6CV)] affording compound 3 as a white solid (0.90 g, yield=70%).

Compound | effect on methanogenesis (%) ([1]; 0.01% DM) | effect on methanogenesis (%) ([1]; 0.05% DM) | effect on methanogenesis (%) ([1]; 0.1% DM) | effect on methanogenesis (%) ([1]; 0.5% DM) | effect on methanogenesis (%) ([1]; 2% DM) | degradation on storage [2] | degradation on drying (1H NMR) [2] | effect on methanogenesis (%) ([1]; 1% DM) | effect on methanogenesis (%) ([1]; 0.25% DM)
CCOC(=O)CCCO[N+](=O)[O-] | −6 | −55 | −82 | −100 | −100 |  |  |  | 
COC(=O)CCO[N+](=O)[O-] | −12 | −64 |  | −100 | −100 |  |  |  | 
O=[N+]([O-])[O-].[Na+] [Na NO3, reference compound] |  |  |  | −2 | −23 |  |  |  | 
CNC(=O)CCCCO[N+](=O)[O-] [Example 18, 5-Nitrooxy-pentanoic acid methylamide] |  |  |  |  |  | No further degradation was observed | Degradation was observed |  | 
O=C(O)CCCCO[N+](=O)[O-] | −23 | −100 | −100 | −100 | −100 |  |  |  | 
O=C(O)CCCO[N+](=O)[O-] |  |  |  |  | 2 |  |  |  | 
O=C(O)CCCCCCCO[N+](=O)[O-] | −7 | −76 | −100 |  |  |  |  |  | 
CC(C)(CO[N+](=O)[O-])C(=O)O |  |  |  | −49 | −100 |  |  |  | 
CCOC(=O)C1CCC(O[N+](=O)[O-])CC1 (stereo not shown) |  | −2 | −88 |  |  |  |  | −98 | 
CCOC(=O)CC(C)O[N+](=O)[O-] (stereo not shown) |  | −17 |  | −100 | −100 |  |  |  | 
CCOC(=O)CCCCCO[N+](=O)[O-] | −3 | −78 | −100 |  |  |  |  |  | 
NC(=O)CCCCO[N+](=O)[O-] [Example 20, 5-Nitrooxy-pentanoic acid amide] |  |  |  |  |  | No further degradation was observed | Degradation was observed |  | 
O=C(O)CCCCCO[N+](=O)[O-] | −10 | −99 | −100 |  |  |  |  |  | 
O=C(O)CCO[N+](=O)[O-] | −8 | −98 | −100 | −100 | −100 |  |  |  | 
CCOC(=O)CO[N+](=O)[O-] |  | −1 | −1 |  |  |  |  |  | 
CCOC(=O)C(C)O[N+](=O)[O-] (stereo not shown) |  | −2 |  | −33 | −100 |  |  |  | 
NC(=O)CCCCO[N+](=O)[O-] [drawing 36] | −2 |  | −99 |  |  |  |  | −98 | 
CCOC(=O)CCCCCCCCCCO[N+](=O)[O-] | −8 | −48 | −99 |  |  |  |  |  | 
CNC(=O)CCCCO[N+](=O)[O-] [drawing 37] | −2 |  | −100 |  |  |  |  | −98 | 
O=C(O)CCCCCCCCCCO[N+](=O)[O-] | −13 | −52 | −99 |  |  |  |  |  | 
CCOC(=O)CCCCCCCO[N+](=O)[O-] | −12 | −96 | −99 |  |  |  |  |  | 
CCOC(=O)CCO[N+](=O)[O-] [drawing 19] |  | −18 | −63 | −100 | −100 |  |  | −100 | −100
CCOC(=O)CCCCO[N+](=O)[O-] | −28 | −87 |  | −100 | −100 |  |  |  | 
